These results are taken from ChEMBL document CHEMBL1130648, “The synthesis of a new type of anthracene DNA intercalator” (Bioorg Med Chem Lett, 1998).

This test has as its system Nucleic Acid. Nature of the test: Compound was tested for binding affinity against CT DNA. It counts as nucleic-acid assay. The note with it: Bos taurus.

Molecule `NCc1c2ccccc2cc2ccccc12` returned a Binding affinity of 10000 M⁻¹.
`COc1cc2c(CCCN)c3cc(OC)c(OC)cc3c(CCCN)c2cc1OC` had a Binding affinity of 40000 M⁻¹.
